Laboratory results taken from publication PMC6627374, “Effects of the Pentapeptide P33 on Memory and Synaptic Plasticity in APP/PS1 Transgenic Mice: A Novel Mechanism Presenting the Protein Fe65 as a Target” (International Journal of Molecular Sciences, 2019).
Values joined by “and” are separate entries in the source; they are usually repeats but may differ in a detail not shown here. Identical values can stand only once. Where a SMILES comes first, the peptide text is derived from it.

Legend:
[1] = molecular target: T1, Fe65-WW domain (WW domain of Fe65) (Homo sapiens, UniProt O00213); assay: ITC binding to Fe65-WW; set-up: species or system human and mouse (WW domain identical); details: 310 K
T1 construct: made in house; host or cells: chemical solid-phase peptide synthesis (Fmoc, Rink Amide AM resin); no expression host
T1 sequence (O00213 253-285 limits assumed): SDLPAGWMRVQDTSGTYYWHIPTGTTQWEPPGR
Method: Synthesis of acetyl-Fe65-WW, acetyl-Pin1-WW, and the control PPPPP (structures involved in Figure 2) was carried out on a Rink Amide AM (0.3 mmol∙g^−1) resin using Fmoc chemistry and activation with HATU in the presence of DIPEA. Cleavage was achieved by a treatment with TFA/H2O/triisopropylsilane/1,4-dithio-DL-threitol/phenol (90:5:3:1:1) at room temperature (RT). TFA was removed in vacuo, the peptides were then precipitated using cold, dry diethyl-ether, dissolved in ACN/H2O and lyophilized.
Isothermal titrations were performed using a Microcal VP-ITC (Malvern Instruments, Malvern, UK) microcalorimeter. Binding experiments were carried out in degassed phosphate-buffered saline (PBS) at pH 7.4. The concentrations of Fe65-WW and Pin1-WW were normalized for the peptide contents. In one titration experiment, 10-μL portions of the ligand-containing solution (P33 or PPPPP) were injected from a computer-controlled 300-μL microsyringe at intervals of 300 s into the solution of the WW domain (Fe65-WW or Pin1-WW), dissolved in the same buffer as for the ligand. The rev of the microsyringe was set to 307 rpm. Measurements were repeated twice at 310 K. The starting concentrations of Fe65-WW and Pin1-WW in the cell were 83.5 and 81.4 μM, respectively, and the concentrations of the stock solutions containing P33 or PPPPP in the syringe were 1.006 and 1.056 mM, respectively. Control experiments were performed by injecting P33 or PPPPP into the cell containing plain buffer without the WW domain, with results achieved via subtracting the dilution heats from those measured in the presence of the WW domain.

[2] = tested on: Iba1-positive microglia; assay: Iba1 immunohistochemistry, microglia density; format: in vivo, mouse; details: APP/PS1-vehicle vs. WT-vehicle, WT-P33, APP/PS1-P33; HC and CTX; 5 mg∙kg^−1 i.p., six months
Method: For this study, three-month-old male and female WT and APP/PS1 mice (n = 37) were used. Four groups were defined: WT-vehicle (physiological saline) (male n = 4; female n = 6), WT-P33 (male n = 6; female n = 5), APP/PS1-vehicle (male n = 3; female n = 5), and APP/PS1-P33 (male n = 6; female n = 2). Animals were subjected to intraperitoneal (i.p.) injections of P33 (5 mg∙kg^−1) for five days per week, over a course of six months. The mice were kept in groups under constant temperature (23 ± 0.5 °C), lighting (12-h/12-h light/dark cycle, lights on at 7:00 a.m.), and humidity (~50%). Standard mouse chow and tap water were supplied ad libitum. All behavioral experiments were performed in the light period. Handling was done daily at the same time.
Mice (five animals per group) were anaesthetized with chloral-hydrate (1 mg∙kg^−1) and perfused transcardially with PBS, followed by ice-cold 4% paraformaldehyde. The brains were removed, post-fixed in the same fixative, and immersed in a 30% sucrose solution containing 0.01% sodium-azide. […]
Slides were scanned by a digital slide scanner (Mirax Midi, 3DHistech Ltd., Budapest, Hungary), equipped with a Pannoramic Viewer 1.15.4, CaseViewer 2.1 program and a QuantCenter, HistoQuant module (3DHistech Ltd., Budapest, Hungary). For quantification, all of the sections were analyzed. […] Antibody-positive cell types from the ROIs were counted and quantified. […]

Question: C[C@@H](N)C(=O)N1CCC[C@@H]1C(=O)N[C@H](C)C(=O)N1CCC[C@@H]1C(=O)N[C@H](CCC(=O)O)C(N)=O [P33] (HELM PEPTIDE1{[dA].[dP].[dA].[dP].[dE].[am]}$$$$V2.0) was tested. Which “selectivity of binding, Fe65-WW over Pin1-WW (in words)” value ([1]; PBS pH 7.4) did it give?
Answer: can bind selectively to the Fe65-WW domain

Question: And the ΔH ([1]; PBS pH 7.4)?
Answer: 0.082 ± 0.001 kcal/mol

Question: What about the “stoichiometric factor N” value ([1]; PBS pH 7.4, 1:1 [P33]/[Fe65-WW] complex) of the same molecule?
Answer: 1.14 and 1.14 ± 0.01

Question: What about the Kd ([1]; PBS pH 7.4, Fe65-WW 83.5 μM in cell, P33 1.006 mM in syringe, measurements repeated twice, read-out: dissociation constant Kd) of the same molecule?
Answer: 4.68 ± 0.04 µM

Question: What about the “density of Iba1-positive microglia (in words)” value [2] of the same molecule?
Answer: higher in the APP/PS1-vehicle treated mice than in the other groups
